Patent US10570184B2, “GLP-1/glucagon receptor co-agonists for medical use” (Novo Nordisk A/S, priority 2014, dated 2020)
Starred links: 1 amine or outer side, 2 acyl side, 3 side chain; linkers in the order of their positions; H or OH if unused. Non-standard residues stand in square brackets, D forms with d. Residues, ends and D or L forms follow the SMILES beside them. Groups on a side chain read outwards from the residue. *: point of attachment. C18 diacid = O=C(O)CCCCCCCCCCCCCCCCC(=O)*; γGlu = O=C(O)[C@H](CCC(=O)[*:2])N[*:1]; Ac4c = NC1(C(=O)O)CCC1; AEEA = NCCOCCOCC(=O)O

Biological target: T1, human glucagon receptor (Homo sapiens, UniProt P47871)
T1 construct: expressed in transfected cells; host or cells: membranes of BHK cells, clone BHK hGCGR A3*25
T1 sequence (P47871 26-477): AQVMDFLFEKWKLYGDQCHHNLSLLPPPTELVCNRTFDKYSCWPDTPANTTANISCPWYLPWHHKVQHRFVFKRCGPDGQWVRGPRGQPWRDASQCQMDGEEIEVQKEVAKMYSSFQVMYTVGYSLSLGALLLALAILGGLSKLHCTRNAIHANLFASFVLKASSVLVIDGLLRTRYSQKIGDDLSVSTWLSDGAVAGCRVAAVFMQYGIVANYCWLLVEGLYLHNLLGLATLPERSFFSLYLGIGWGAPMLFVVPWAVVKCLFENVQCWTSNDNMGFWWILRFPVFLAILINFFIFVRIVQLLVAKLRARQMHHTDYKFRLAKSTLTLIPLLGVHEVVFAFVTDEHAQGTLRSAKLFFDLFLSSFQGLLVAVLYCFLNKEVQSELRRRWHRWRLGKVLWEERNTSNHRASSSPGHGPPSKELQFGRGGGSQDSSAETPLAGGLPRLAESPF
Test: Assay (II)(b) glucagon receptor binding, 125I-glucagon displacement SPA on BHK membranes
Settings: without presence of serum albumin; read-out: GlucagonR IC50 (nM) [Assay (II)(b)]
Protocol: The glucagon receptor (glucagonR) binding activity is a measure of affinity of a derivative for the human glucagon receptor. The receptor binding of each compound to the human glucagon receptor was measured in a displacement binding assay. In this type of assay a labelled ligand (in this case 125I-glucagon) is bound to the receptor. Each derivative was added in a series of concentrations to isolated membranes containing the human glucagon receptor and displacement of the labelled ligand is monitored. The receptor binding was reported as the concentration at which half of the labelled ligand is displaced from the receptor, the IC50 value. In order to test the binding of the derivatives to albumin, the assay may be performed in a very low concentration of serum albumin (max. 0.001% final assay concentration) as well as in the presence of a higher concentration of serum albumin (0.2% final assay concentration). An increase of the IC50 value, in the presence of serum albumin indicates an affinity to serum albumin and represents a method to predict a protracted pharmacokinetic profile of the test substance in animal models. […] The protein concentration was determined. […]

IC50	Compound
2.7 nM	CC[C@H](C)[C@H](NC(=O)[C@H](CC(C)C)NC(=O)[C@H](Cc1c[nH]c2ccccc12)NC(=O)[C@H](CCC(N)=O)NC(=O)[C@@H](NC(=O)[C@H](Cc1ccccc1)NC(=O)[C@H](CCC(=O)O)NC(=O)[C@H](CCCNC(=N)N)NC(=O)[C@H](C)NC(=O)[C@H](CCCNC(=N)N)NC(=O)[C@H](CCCNC(=N)N)NC(=O)[C@H](CO)NC(=O)[C@H](CCC(=O)O)NC(=O)[C@H](CC(C)C)NC(=O)[C@H](Cc1ccc(O)cc1)NC(=O)[C@H](CCCCN)NC(=O)[C@H](CO)NC(=O)[C@H](CC(C)C)NC(=O)[C@H](CC(=O)O)NC(=O)[C@H](CO)NC(=O)[C@@H](NC(=O)[C@H](Cc1ccccc1)NC(=O)[C@@H](NC(=O)CNC(=O)[C@H](CCC(N)=O)NC(=O)C1(NC(=O)[C@@H](N)Cc2c[nH]cn2)CCC1)[C@@H](C)O)[C@@H](C)O)C(C)C)C(=O)N[C@@H](CCCCNC(=O)CNC(=O)[C@H](CO)NC(=O)[C@H](CCC(=O)O)NC(=O)CNC(=O)[C@H](CO)NC(=O)CC[C@H](NC(=O)CC[C@H](NC(=O)CCCCCCCCCCCCCCCCC(=O)O)C(=O)O)C(=O)O)C(=O)N[C@H](C(N)=O)[C@@H](C)O [Chem. 16, N^ε28-[2-[[(2S)-2-[[(2S)-4-carboxy-2-[[2-[[(2S)-2-[[(4S)-4-carboxy-4-[[(4S)-4-carboxy-4-(17-carboxyheptadecanoylamino)butanoyl]amino]butanoyl]amino]-3-hydroxypropanoyl]amino]acetyl]amino]butanoyl]amino]-3-hydroxypropanoyl]amino]acetyl]-[Acb2,Leu10,Glu15,Arg20,Glu21,Ile27,Lys28]-Glucagon amide] (HELM PEPTIDE1{H.[O=C(C1(N[*:1])CCC1)[*:2]].Q.G.T.F.T.S.D.L.S.K.Y.L.E.S.R.R.A.R.E.F.V.Q.W.L.I.K.T.[am]}|PEPTIDE2{[O=C(O)CCCCCCCCCCCCCCCCC(=O)[*:2]].[gGlu].[gGlu].S.G.E.S.G}$PEPTIDE1,PEPTIDE2,28:R3-8:R2$$$V2.0)
2.7 nM	CC[C@H](C)[C@H](NC(=O)[C@H](CC(C)C)NC(=O)[C@H](Cc1c[nH]c2ccccc12)NC(=O)[C@H](CCC(N)=O)NC(=O)[C@@H](NC(=O)[C@H](Cc1ccccc1)NC(=O)[C@H](CCC(=O)O)NC(=O)[C@H](CCC(N)=O)NC(=O)[C@H](C)NC(=O)[C@H](CCCNC(=N)N)NC(=O)[C@H](CCCNC(=N)N)NC(=O)[C@H](CO)NC(=O)[C@H](CCC(=O)O)NC(=O)[C@H](CC(C)C)NC(=O)[C@H](Cc1ccc(O)cc1)NC(=O)[C@H](CCCCN)NC(=O)[C@H](CO)NC(=O)[C@H](CC(C)C)NC(=O)[C@H](CC(=O)O)NC(=O)[C@H](CO)NC(=O)[C@@H](NC(=O)[C@H](Cc1ccccc1)NC(=O)[C@@H](NC(=O)CNC(=O)[C@H](CCC(N)=O)NC(=O)C1(NC(=O)[C@@H](N)Cc2c[nH]cn2)CCC1)[C@@H](C)O)[C@@H](C)O)C(C)C)C(=O)N[C@@H](CCCCNC(=O)CC[C@H](NC(=O)COCCOCCNC(=O)COCCOCCNC(=O)CC[C@H](NC(=O)CC[C@H](NC(=O)CCCCCCCCCCCCCCCCC(=O)O)C(=O)O)C(=O)O)C(=O)O)C(=O)N[C@H](C(N)=O)[C@@H](C)O [Chem. 38, N^ε28-[(4S)-4-carboxy-4-[[2-[2-[2-[[2-[2-[2-[[(4S)-4-carboxy-4-[[(4S)-4-carboxy-4-(17-carboxyheptadecanoylamino)butanoyl]amino]butanoyl]amino]ethoxy]ethoxy]acetyl]amino]ethoxy]ethoxy]acetyl]amino]butanoyl]-[Acb2,Leu10,Glu15,Glu21,Ile27,Lys28]-Glucagon amide] (H-H[Ac4c]QGTFTSDLSKYLESRRAQEFVQWLIK([γGlu-AEEA-AEEA-γGlu-γGlu-C18 diacid])T-NH2; N-terminus assumed)
